According to patent US11773127B2, “Compounds and methods for treating bacterial infections” (Washington University, priority 2017, dated 2023):
In brackets after ≈: the same amount, converted by molar mass. Where two headings read alike, the source gives them in different places.

Key:
[1] = target: T1, FmlH lectin domain (FmlH^LD; first 182 amino acids of CFT073 FmlH = signal sequence and lectin domain, C-terminal 6×-his tag, wild-type, biotinylated) (Escherichia coli, UniProt A0A0H2V7F6); test: ELISA-based competition assay: inhibition of biotinylated FmlH lectin domain binding to surface-immobilized desialylated bovine submaxillary mucin (ds-BSM); design: species or system E. coli (uropathogenic, urosepsis isolate CFT073); details: read-out: FmlH (FmlH^LD) lectin domain (LD) IC50, FIG. 14, 20 μg/mL biotinylated FmlH^LD, compounds serially diluted 2×, 1 hour at room temperature, ds-BSM coated wells, absorbance 450 nm
T1 construct: biotinylated for ELISA; wild type
T1 sequence (A0A0H2V7F6 entry or part of it): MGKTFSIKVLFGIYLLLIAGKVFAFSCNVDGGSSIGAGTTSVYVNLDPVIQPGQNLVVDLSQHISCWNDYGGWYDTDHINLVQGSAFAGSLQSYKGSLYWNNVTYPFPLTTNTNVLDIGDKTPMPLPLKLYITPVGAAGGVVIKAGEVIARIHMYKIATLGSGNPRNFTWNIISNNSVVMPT
Procedure: Thereafter, wells were incubated with 200 μl blocking buffer (PBS+1% BSA) for 2 hours at 23° C., followed by incubation with 100 μl biotinylated FmlHLD diluted in blocking buffer to 20 μg/ml in the presence or absence of the tested compounds for 1 hr at 23° C. After washing 3× with PBS+0.05% TWEEN-20, 100 μl Streptavidin-HRP conjugate (BD Biosciences; 1:2000 dilution in blocking buffer) was added to each well for 1 hr at 23° C. After a final round of washing, plates were developed with 100 μl Tetramethylbenzidine (TMB, BD Biosciences) substrate, quenched within 1-2 min with 50 μl […], and absorbance measured at 450 nm.
Briefly, 1 μg bovine submaxillary mucin (Sigma) in 100 uL PBS were incubated with Immulon 4HBX 96-well plates overnight prior to treatment with 1 mU Arthrobacter ureafaciens sialidase for 1 hour at 37° C. to remove terminal sialic acid sugars. Wells were then blocked with 200 μL PBS+1% BSA for 2 hours at room temperature. Biotinylated FmlH^LD was diluted to 20 μg/mL in blocking buffer and incubated in the presence or absence of compounds serially diluted 2× down eight rows for 1 hour at room temperature. […] Total bound portion concentration was measured by the absorbance at 450 nm. IC50s were determined using the Graphpad Prism software.

Mouse plasma stability = format: in vitro ADME
Procedure: (§1) These compounds were assessed for their stability in simulated gastric fluid (SGF), simulated intestinal fluid (SIF), mouse liver microsomes, and blood plasma (Table 7). […] These findings are consistent with our earlier characterization of FimH antagonists (mannosides).

[2] = Stability in simulated gastric fluid (SGF); format: in vitro ADME
Procedure: as §1

[3] = Mouse pharmacokinetics, IP injection; details: 20 mg/kg IP
Procedure: These studies were conducted via 20 mg/kg intraperitoneal (IP) injection to inform planned future IP studies in murine studies of chronic UTI, which require a single IP dose of galactoside to persist in the plasma for 6 hours prior to measurement of bladder bacterial burdens (FIG. 17)^22.

[4] = Mouse liver microsome stability; format: in vitro ADME
Procedure: as §1

[5] = Stability in simulated intestinal fluid (SIF); format: in vitro ADME
Procedure: as §1

Kinetic solubility = format: physicochemical
FmlHLD [6] = target: T2, FmlHLD (Escherichia coli, UniProt P77588); test: biochemical; format: binding, E. coli; details: for inhibitory potency against FmlH, in words: ELISA-based competition assay
T2 construct: 6xHis (C); made in house; host or cells: E. coli C600, periplasm, pTRC99a
T2 sequence (P77588 25-182): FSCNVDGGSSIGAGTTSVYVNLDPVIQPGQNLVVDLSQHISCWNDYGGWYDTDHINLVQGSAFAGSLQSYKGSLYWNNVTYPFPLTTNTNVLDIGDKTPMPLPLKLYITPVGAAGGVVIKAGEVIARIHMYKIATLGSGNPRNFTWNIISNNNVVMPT
In short: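 Sialidase-treated bovine submaxillary mucin (ds-BSM) coated wells, BSA-blocked, then biotinylated FmlH^LD (20 μg/mL) with or without compound for 1 h at room temperature. Bound lectin detected by streptavidin-HRP/TMB, A450.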

[7] = Rat pharmacokinetics, plasma and urine, IV and PO; format: in vivo
Procedure: In this example, the concentration of compounds 3086 and 3090 in rat plasma and urine following either a 10 mg/kg oral dose (PO; circular dots) or a 3 mg/kg intravenous dose (IV; square dots) was determined (FIG. 16, panel A (3086) and panel B (3090)). […] Thus, the metabolic stability of these compounds and clearance of these compounds has no relation to the permeability (oral or otherwise) of compounds. The highly polar nature of these molecules containing the sugar GalNAc and multiple polar functionalities precludes their permeability in the gut.

FmlHLD [8] = target: T2, FmlHLD; test: biochemical; format: binding, E. coli; details: for Kd: immobilized ser-TF
Text: Bio-layer interferometry (BLI) was used to quantitate the binding affinity of select galactosides to FmlH.
Thereafter, pins were dipped in PBS for 120 s and transferred to protein samples (varying concentration of FmlHLD or fixed concentration of FmlHLD with varying concentration of galactoside compounds) for association for 300-600 s.

FmlHLD [9] = target: T2, FmlHLD; test: Immunofluorescence of FmlHLD binding to human bladder and kidney tissue; design: species or system E. coli; details: 50 μg/ml FmlHLD WT incubated with 100 μM compound
Procedure: The relevance of FmlH and FmlH-targeting galactosides in human UTI was assessed by performing immunofluorescence analysis of wild-type (WT) FmlHLD or mutant (K132Q) FmlHLD binding to human bladder and non-malignant kidney biopsied tissue in the presence or absence of 29β-NAc.
Frozen, de-identified human bladder and kidney sections were obtained from the Tissue Procurement Core and stored stably at −80° C. These tissue section slides were removed from the freezer and allowed to thaw at room temperature for 10-20 min. After applying a hydrophobic barrier pen around the tissue, slides were rehydrated in 200 μl buffer (5% BSA, 0.2% Triton X-100 in PBS) for 10 min. Buffer was gently aspirated and slides were blocked for 1 hr at room temperature with 200 μl buffer. Thereafter, buffer was gently aspirated and slides were incubated with 200 μl sample overnight at 4° C. Samples diluted in buffer included 50 μg/ml FmlHLD wild-type (WT), 50 μg/ml FmlHLD K132Q, and 50 μg/ml FmlHLD WT incubated with 100 μM 29β-NAc. Samples were gently aspirated and slides were washed three times in buffer for 5 min each. Next, slides were incubated with a mouse anti-FmlH polyclonal antibody (1:500 dilution in buffer) for 1 hr at room temperature. […]

CFT073 = test: Murine chronic UTI (chronic cystitis) model, bacterial titers in bladder and kidney; format: in vivo, C3H/HeN mice; details: 50 mg/kg transurethral, 6 hours post treatment, relative to vehicle control
Procedure: To assess therapeutic efficacy, galactosides were evaluated for their ability to reduce bacterial burdens in the urinary tracts of C3H/HeN mice during chronic UTI. 7-8 week old female C3H/HeN mice were obtained from Envigo (Indianapolis, IN). Mice were anesthetized and inoculated via transurethral catheterization with 50 μl of CFT073 bacterial suspension (˜1-2*10^8 CFU in total) in phosphate-buffered saline (PBS). Chronic cystitis in C3H/HeN mice was defined as urine titers of >10^4 CFU/ml lasting at least two to four weeks, as well as bladder inflammation and edema at euthanasia. […] Accordingly, high levels of CFT073 kidney colonization were also observed in control (vehicle-treated) animals. […] Compounds tested were: 29β-NAc (50 mg/kg), mannoside 4Z269 (a type 1 pilus adhesin FimH inhibitor, 50 mg/kg), or 29β-NAc+4Z269. Mice were sacrificed 6 hours post treatment and bacteria colonizing the bladder or kidney were plated for quantification. Data are presented in FIG. 9, panels A and B, as bacterial titers of CFT073 in each organ in each condition. The horizontal lines represent the means. Asterisks indicate significance (*P<0.05, **P<0.01, ***P<0.001, ****P<0.0001, two-tailed Mann-Whitney U test). Each condition was measured in two or three independent experiments with 4 or 5 mice per group per experiment.

With CC(=O)N[C@H]1[C@H](Oc2ccccc2-c2cccc(C(=O)O)c2)O[C@H](CO)[C@H](O)[C@@H]1O [D00014 row 1, 2′-(2-acetamido-2-deoxy-β-D-galactopyranosyloxy)-[1,1′-Biphenyl]-3-carboxylic acid] as the molecule, how does the IC50 [1] read?
The IC50 was 650 nM.

For CC(=O)N[C@H]1[C@H](Oc2cccc(C)c2-c2cccc(NS(C)(=O)=O)c2)O[C@H](CO)[C@H](O)[C@@H]1O [Compound 3084, N-((2S,3R,4R,5R,6R)-4,5-dihydroxy-6-(hydroxymethyl)-2-((6-methyl-3′-(methylsulfonamido)-[1,1′-biphenyl]-2-yl)oxy)tetrahydro-2H-pyran-3-yl)acetamide], which “Mouse plasma % remaining 2 h” value (Mouse plasma stability) is on record?
Its value is 100.00%.

What about the “SGF % remaining 6 h” value [2] of the same molecule?
Its value is 100.00%.

What about the Cmax [3] of the same molecule?
Its Cmax is 7897 ng/mL.

What about the “calculated AUC” value [3] of the same molecule?
Its value is 6300 ng·h/mL.

And the “compound exposure at 8 h” value [3]?
Its value is “moderate compound exposure”.

And the “half-life, t1/2” value [3]?
Its value is 1.13 h.

And the “Mouse liver microsomes (t1/12 min)” value [4]?
The value was greater than 145 min.

And the “SIF % remaining 2 h” value [5]?
Its value is 100.00%.

And the solubility kinetic (Kinetic solubility)?
The solubility kinetic was 195 µM (≈ 93.7 µg/mL).

What about the IC50 (FmlHLD [6]; IC50) of the same molecule?
Its IC50 is 0.12 µM.

What about the IC50 (FmlHLD [6]; IC50 equated to a concentration, conversion of IC50 of 120 nM) of the same molecule?
The IC50 was 0.12 µM.

For CC(=O)N[C@@H]1[C@H](Oc2cccc(C(F)(F)F)c2-c2cccc(NS(C)(=O)=O)c2)OC(CO)[C@H](O)[C@@H]1O (stereo partly drawn) [Compound 3090, N-((2S,3S,4R,5R)-4,5-dihydroxy-6-(hydroxymethyl)-2-((3′-(methylsulfonamido)-6-(trifluoromethyl)-[1,1′-biphenyl]-2-yl)oxy)tetrahydro-2H-pyran-3-yl)acetamide], which “Mouse plasma % remaining 2 h” value (Mouse plasma stability) is on record?
Its value is 92.2%.

What about the “SGF % remaining 6 h” value [2] of the same molecule?
Its value is 89.25%.

And the “Mouse liver microsomes (t1/12 min)” value [4]?
Its value is greater than 145 min.

And the “SIF % remaining 2 h” value [5]?
Its value is 91.9%.

And the solubility kinetic (Kinetic solubility; kinetic from dmso stock)?
The solubility kinetic was 197 µM (≈ 105 µg/mL).

And the “inhibitory potency against FmlH, in words” value (FmlHLD [6])?
The value was “highest potency of the compounds tested”.

And the IC50 (FmlHLD [6]; IC50)?
The IC50 was 0.085 µM.

And the bioavailability ([7]; in vivo, rat, 10 mg/kg PO vs 3 mg/kg IV, read-out: oral bioavailability (F))?
The bioavailability was less than 1%.

And the “renal clearance to the urine” value ([7]; rat)?
Its value is “low renal clearance to the urine”.

What about the half-life ([7]; rat plasma, 10 mg/kg PO or 3 mg/kg IV) of the same molecule?
The half-life was 1.16 h.

And the clearance ([7]; rat plasma, 10 mg/kg PO or 3 mg/kg IV, read-out: clearance (Cl))?
Its clearance is 57 mL/min/kg.

Which “enhancement in binding affinity relative to Gal” value (FmlHLD [8]; BLI Kd ratio) does the source give for CC(=O)N[C@H]1[C@H](Oc2ccccc2-c2cccc(C(=O)O)c2)O[C@H](CO)[C@H](O)[C@@H]1O [Compound 29β-NAc, 2′-(2-acetamido-2-deoxy-β-D-galactopyranosyloxy)-[1,1′-Biphenyl]-3-carboxylic acid] here?
The value was ~7,800 fold.

And the Kd (FmlHLD [8]; Kd (μM), inhibitory constants, fixed FmlHLD, varying galactoside in solution)?
The Kd was 0.089 µM.

And the Kd (FmlHLD [8]; Kd, galactoside in solution)?
Its Kd is roughly 0.09 µM.

What about the “inhibitory potency against FmlH, in words” value (FmlHLD [6]) of the same molecule?
Its value is “most potent”.

What about the IC50 (FmlHLD [6]; IC50 (μM), Table 5, Gal and GalNAc inhibition of FmlH) of the same molecule?
The IC50 was 0.64 µM.

What about the inhibition at 1 µM (FmlHLD [6]; read-out: PI1 (percent inhibition), galactoside at 1 μM, mean with standard error of the mean) of the same molecule?
The inhibition at 1 µM was 54.7 ± 2.8%.

And the inhibition at 10 µM (FmlHLD [6]; read-out: PI10 (percent inhibition), galactoside at 10 μM, mean with standard error of the mean)?
Its inhibition at 10 µM is 93%.

And the inhibition at 100 µM (FmlHLD [6]; read-out: PI100 (percent inhibition), galactoside at 100 μM, mean with standard error of the mean)?
The inhibition at 100 µM was 99.5 ± 2.2%.

What about the “FmlHLD binding to human kidney tissue” value (FmlHLD [9]) of the same molecule?
Its value is “prevented binding to human kidney tissue”.

And the “bacterial titers of CFT073 in the bladder” value (CFT073)?
Its value is “significant reduction of CFT073 in the bladders”.

What about the “bacterial titers of CFT073 in the kidney” value (CFT073) of the same molecule?
Its value is “even greater clearance of CFT073 from the kidneys”.
